Laboratory results reported in publication PMC11374673, “Discovery of isoquinoline sulfonamides as allosteric gyrase inhibitors with activity against fluoroquinolone-resistant bacteria” (Nature Chemistry, 2024).
≈ marks a conversion by molar mass, not a printed value. Where “and” joins values, the source holds several entries; their conditions need not be identical. Equal values may be shown once.

Tests used:
E. coli W3110 = experiment: MIC by broth microdilution; format: cell-based, Escherichia coli
Description: (§1) MIC was determined by broth microdilution. Single-colony cultures were grown to exponential phase (OD600 of 0.5) aerobically at 37 °C. In case of strains from the Keio collection, 50 µg ml^−1 kanamycin was supplemented to the media to ascertain a homogeneous population. The bacterial suspensions were diluted 100-fold in CAMHB and 50 µl was added to a twofold serial dilution series of test compounds (50 µl per well) in polypropylene 96-well microtitre plates to reach a volume of 100 µl. The plates were sealed with breathable membranes and incubated overnight at 37 °C with constant shaking (600 r.p.m.).

K. pneumoniae ATCC 29665 = experiment: MIC by broth microdilution; format: cell-based, Klebsiella pneumoniae; conditions: Klebsiella pneumoniae, ATCC29665, broth microdilution; read-out: MIC K. pneumoniae ATCC 29665
Description: as §1

HEK293T = experiment: Cytotoxicity assay (MTT); format: cell-based, human; conditions: for MTT data (raw readout): HEK293T
Description: (§2) HepG2 (ATCC HB-8065) and HEK293T (ATCC CRL-3216) cell lines were cultured at 37 °C and 7% CO2 in Dulbecco’s modified Eagle medium (Sigma-Aldrich, D6546) with GlutaMax, penicillin (100 µg ml^−1), streptomycin (100 µg ml^−1) and 10% fetal calf serum. Cells were passaged twice a week by first detaching using 0.05% trypsin in phosphate-buffered saline (PBS) and then diluting to appropriate confluence. Compound cytotoxicity was evaluated using the standard (3-(4,5-dimethylthiazol-2-yl)-2,5-diphenyltetrazolium bromide (MTT) assay protocol (MTT assay protocol for cell viability and proliferation, Merck) with slight changes. HepG2 and HEK293T cells were seeded at a density of 1.5 × 10^4 cells per well in a clear 96-well tissue culture treated plate in a final volume of 100 µl in Dulbecco’s modified Eagle medium, supplemented with fetal bovine serum (1%), GlutaMax and penicillin/streptomycin. Cells were incubated for 24 h at 37 °C, 7% CO2 to allow cells to attach to the plates. […] Incubation was done for 24 h at 37 °C, 7% CO2. After the incubation, MTT was added to each well at a final concentration of 0.40 mg ml^−1. The plates were then incubated for 2 h at 37 °C, 7% CO2. Medium was carefully removed via suction, and purple formazan crystals were resuspended in 100 µl DMSO. Absorbance was read at 570 nm using a Clariostar plate reader with MARS (V4.20). The data were then analysed with GraphPad Prism software. IC50 values were calculated using non-linear fitted curve with variable slope settings, with values adjusted for background (plotted absorbance (ABS)sample = (ABSsample – ABSbackground) / (ABSvehicle – ABSbackground)). Technical triplicates for each condition were used, along with biological duplicates.

HepG2 = experiment: Cytotoxicity assay (MTT); format: cell-based, human
Description: as §2

O=S(=O)(NCCNCc1ccc(-c2ccsc2)cc1)c1cccc2cnccc12 [Compound 57]
MIC (E. coli W3110; Escherichia coli, W3110, WT, broth microdilution, read-out: MIC E. coli W3110): 6.25 µM (≈ 2.65 µg/mL) | antimicrobial activity (E. coli W3110; relative to parent compound): equally potent | MIC (K. pneumoniae ATCC 29665): 12.5 µM (≈ 5.29 µg/mL) | MTT data (raw readout) (HEK293T; 0.023 uM, experiment n = 1, technical triplicates): 0.793 and 0.726 and 0.620 | MTT data (raw readout) (HEK293T; 0.023 uM, experiment n = 2, technical triplicates): 0.807 and 0.803 and 0.611 | MTT data (raw readout) (HEK293T; 0.068 uM, experiment n = 1, technical triplicates): 0.732 and 0.738 and 0.650 | MTT data (raw readout) (HEK293T; 0.068 uM, experiment n = 2, technical triplicates): 0.765 and 0.761 and 0.569 | MTT data (raw readout) (HEK293T; 0.21 uM, experiment n = 1, technical triplicates): 0.722 and 0.771 and 0.628 | MTT data (raw readout) (HEK293T; 0.21 uM, experiment n = 2, technical triplicates): 0.825 and 0.737 and 0.605 | MTT data (raw readout) (HEK293T; 0.62 uM, experiment n = 1, technical triplicates): 0.689 and 0.691 and 0.563 | MTT data (raw readout) (HEK293T; 0.62 uM, experiment n = 2, technical triplicates): 0.748 and 0.715 and 0.545 | MTT data (raw readout) (HEK293T; 1.85 uM, experiment n = 1, technical triplicates): 0.625 and 0.610 and 0.502 | MTT data (raw readout) (HEK293T; 1.85 uM, experiment n = 2, technical triplicates): 0.678 and 0.632 and 0.506 | MTT data (raw readout) (HEK293T; 5.6 uM, experiment n = 1, technical triplicates): 0.490 and 0.501 and 0.402 | MTT data (raw readout) (HEK293T; 5.6 uM, experiment n = 2, technical triplicates): 0.448 and 0.475 and 0.377 | MTT data (raw readout) (HEK293T; 16.7 uM, experiment n = 1, technical triplicates): 0.253 and 0.231 and 0.202 | MTT data (raw readout) (HEK293T; 16.7 uM, experiment n = 2, technical triplicates): 0.296 and 0.267 and 0.213 | MTT data (raw readout) (HEK293T; 50 uM, experiment n = 1, technical triplicates): 0.051 and 0.066 and 0.048 | MTT data (raw readout) (HEK293T; 50 uM, experiment n = 2, technical triplicates): 0.078 and 0.094 and 0.056 | IC50 (HEK293T; Homo sapiens, HEK-293T, 24 h, MTT): 6.6 µM | MTT data (raw readout) (HepG2; HepG2, 0.023 uM, experiment n = 1, technical triplicates): 0.512 and 0.502 and 0.507 | MTT data (raw readout) (HepG2; HepG2, 0.023 uM, experiment n = 2, technical triplicates): 0.479 and 0.518 and 0.476 | MTT data (raw readout) (HepG2; HepG2, 0.068 uM, experiment n = 1, technical triplicates): 0.477 and 0.445 and 0.510 | MTT data (raw readout) (HepG2; HepG2, 0.068 uM, experiment n = 2, technical triplicates): 0.538 and 0.507 and 0.588 | MTT data (raw readout) (HepG2; HepG2, 0.21 uM, experiment n = 1, technical triplicates): 0.485 and 0.473 and 0.497 | MTT data (raw readout) (HepG2; HepG2, 0.21 uM, experiment n = 2, technical triplicates): 0.529 and 0.523 and 0.494 | MTT data (raw readout) (HepG2; HepG2, 0.62 uM, experiment n = 1, technical triplicates): 0.426 and 0.445 and 0.470 | MTT data (raw readout) (HepG2; HepG2, 0.62 uM, experiment n = 2, technical triplicates): 0.529 and 0.507 and 0.472 | MTT data (raw readout) (HepG2; HepG2, 1.85 uM, experiment n = 1, technical triplicates): 0.360 and 0.379 and 0.361 | MTT data (raw readout) (HepG2; HepG2, 1.85 uM, experiment n = 2, technical triplicates): 0.404 and 0.395 and 0.409 | MTT data (raw readout) (HepG2; HepG2, 5.6 uM, experiment n = 1, technical triplicates): 0.268 and 0.278 and 0.299 | MTT data (raw readout) (HepG2; HepG2, 5.6 uM, experiment n = 2, technical triplicates): 0.322 and 0.303 and 0.267 | MTT data (raw readout) (HepG2; HepG2, 16.7 uM, experiment n = 1, technical triplicates): 0.206 and 0.230 and 0.232 | MTT data (raw readout) (HepG2; HepG2, 16.7 uM, experiment n = 2, technical triplicates): 0.246 and 0.259 | MTT data (raw readout) (HepG2; HepG2, 50 uM, experiment n = 2, technical triplicates): 0.039 and 0.047 and 0.038 | IC50 (HepG2; Homo sapiens, HepG2, 24 h, MTT, 24 h): 8.2 µM
